From ChEMBL document CHEMBL5291721, “A preclinical secondary pharmacology resource illuminates target-adverse drug reaction associations of marketed drugs” (Nat Commun, 2023) come the findings set out here.

In experiment [1] the target is T1, Type-1 angiotensin II receptor (Homo sapiens, UniProt P30556).
T1 sequence (P30556 whole entry): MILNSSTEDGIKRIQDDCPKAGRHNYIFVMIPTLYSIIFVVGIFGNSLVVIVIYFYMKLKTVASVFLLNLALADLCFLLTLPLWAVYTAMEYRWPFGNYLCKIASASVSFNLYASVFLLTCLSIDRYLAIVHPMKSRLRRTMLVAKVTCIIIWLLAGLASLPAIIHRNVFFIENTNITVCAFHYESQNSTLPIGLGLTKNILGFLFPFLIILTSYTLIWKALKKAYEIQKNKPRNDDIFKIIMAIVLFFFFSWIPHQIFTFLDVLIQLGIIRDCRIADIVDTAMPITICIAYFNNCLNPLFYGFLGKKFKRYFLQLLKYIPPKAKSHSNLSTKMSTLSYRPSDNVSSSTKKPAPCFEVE

Experiment [2] has as its target T2, Retinoic acid receptor alpha (Homo sapiens, UniProt P10276).
T2 sequence (P10276 whole entry): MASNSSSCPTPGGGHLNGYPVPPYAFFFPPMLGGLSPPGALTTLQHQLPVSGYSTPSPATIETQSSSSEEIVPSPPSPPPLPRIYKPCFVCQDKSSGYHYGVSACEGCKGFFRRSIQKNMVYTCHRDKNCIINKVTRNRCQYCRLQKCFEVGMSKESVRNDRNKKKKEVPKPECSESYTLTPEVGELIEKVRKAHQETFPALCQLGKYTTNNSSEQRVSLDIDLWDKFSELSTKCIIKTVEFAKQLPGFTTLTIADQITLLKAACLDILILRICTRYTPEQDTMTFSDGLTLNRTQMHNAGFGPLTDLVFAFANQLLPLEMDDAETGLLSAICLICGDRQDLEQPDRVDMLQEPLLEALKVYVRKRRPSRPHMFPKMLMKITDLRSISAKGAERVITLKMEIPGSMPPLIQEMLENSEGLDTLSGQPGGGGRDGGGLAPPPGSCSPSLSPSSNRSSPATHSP
The format is functional, cell-based.

For experiment [3], the target named is T2, Retinoic acid receptor alpha. It is filed as functional, cell-based. The source holds these as a separate data set.
The target of experiment [4] is T3, Retinoic acid receptor beta (Homo sapiens, UniProt P10826).
T3 sequence (P10826 whole entry): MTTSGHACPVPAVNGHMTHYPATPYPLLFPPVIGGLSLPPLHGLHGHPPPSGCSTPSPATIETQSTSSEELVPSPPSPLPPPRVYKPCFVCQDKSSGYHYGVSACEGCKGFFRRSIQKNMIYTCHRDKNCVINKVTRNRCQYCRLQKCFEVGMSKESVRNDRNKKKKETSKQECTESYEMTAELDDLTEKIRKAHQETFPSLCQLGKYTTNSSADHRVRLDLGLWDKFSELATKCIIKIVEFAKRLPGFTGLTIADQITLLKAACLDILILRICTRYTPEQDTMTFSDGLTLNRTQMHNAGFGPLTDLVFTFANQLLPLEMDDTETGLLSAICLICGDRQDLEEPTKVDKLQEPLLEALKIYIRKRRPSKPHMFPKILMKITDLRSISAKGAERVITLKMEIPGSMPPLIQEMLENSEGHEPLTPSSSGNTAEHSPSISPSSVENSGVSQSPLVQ
It is filed as functional, cell-based.

Experiment [5] addresses T4, Oxysterols receptor LXR-beta (Homo sapiens, UniProt P55055).
T4 sequence (P55055 whole entry): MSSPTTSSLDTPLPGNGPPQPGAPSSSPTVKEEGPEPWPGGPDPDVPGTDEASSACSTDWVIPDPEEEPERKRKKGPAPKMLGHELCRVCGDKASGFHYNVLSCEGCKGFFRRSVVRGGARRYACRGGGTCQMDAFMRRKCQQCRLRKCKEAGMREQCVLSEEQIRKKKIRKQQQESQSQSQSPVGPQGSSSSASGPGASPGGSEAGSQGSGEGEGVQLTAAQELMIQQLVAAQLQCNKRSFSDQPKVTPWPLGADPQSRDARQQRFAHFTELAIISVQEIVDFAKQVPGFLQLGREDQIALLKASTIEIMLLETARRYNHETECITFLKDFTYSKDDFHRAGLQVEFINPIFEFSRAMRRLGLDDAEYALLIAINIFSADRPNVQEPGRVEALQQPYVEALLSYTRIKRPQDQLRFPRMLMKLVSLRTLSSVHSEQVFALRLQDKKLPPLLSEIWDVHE
It is filed as functional.

The target of experiment [6] is T5, Alpha-1A adrenergic receptor (Homo sapiens, UniProt P35348).
T5 sequence (P35348 whole entry): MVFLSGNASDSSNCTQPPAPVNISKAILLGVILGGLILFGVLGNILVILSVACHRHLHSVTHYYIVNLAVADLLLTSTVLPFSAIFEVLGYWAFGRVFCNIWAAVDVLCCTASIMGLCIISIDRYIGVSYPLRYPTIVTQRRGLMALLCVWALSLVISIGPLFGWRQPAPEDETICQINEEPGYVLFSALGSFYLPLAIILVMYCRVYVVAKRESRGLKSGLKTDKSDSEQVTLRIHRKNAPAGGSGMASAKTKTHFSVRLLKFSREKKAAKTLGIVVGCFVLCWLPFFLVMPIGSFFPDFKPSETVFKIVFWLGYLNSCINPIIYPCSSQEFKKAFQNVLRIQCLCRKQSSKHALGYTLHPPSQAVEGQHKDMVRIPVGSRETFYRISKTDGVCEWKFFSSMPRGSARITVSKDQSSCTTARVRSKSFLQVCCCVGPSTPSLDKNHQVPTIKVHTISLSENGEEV
Note: assay procedure not described here.

Broadly, the AC50 is the concentration at which the activity in the assay is half-maximal. Consider `Cc1c(O)c(=O)ccn1C` [DEFERIPRONE], for which the AC50 in experiment [1] was above 100 µM.
Consider `CC(C)c1c(C(=O)Nc2ccccc2)c(-c2ccccc2)c(-c2ccc(F)cc2)n1CC[C@@H](O)C[C@@H](O)CC(=O)O` [ATORVASTATIN], for which the AC50 in experiment [2], in experiment [3], in experiment [4] and in experiment [5] was above 30 µM each time.
Compound BIVALIRUDIN showed an AC50 in experiment [6] above 30 µM.
